Test results reported in patent US7897776B2, “Sulfonamide containing compounds for treatment of inflammatory disorders” (Salutria Pharmaceuticals LLC, priority 2007, dated 2011).
Structures can show the parent of a compound that is named as a salt.

Experiments:
[1] = system: Methacholine-induced airway reactivity; experiment: Mouse model of asthma: methacholine-induced airway reactivity (Penh) in ovalbumin-sensitized and challenged mice; assay type: in vivo; conditions: % inhibition of the PenH vs McH dose AUC compared with vehicle control; for inhibition in vivo at 50 mg/kg: Mus musculus, po, 768 h, 50 mg/kg p.o., dosed days 26-32, measured day 32, ovalbumin-sensitized male Balb/CJ mice, read-out: Reduction of Penh AUC at 50 mg/kg p.o.
Protocol: Male 5-6 week old Balb/CJ mice were obtained from Jackson Laboratories (Bar Harbor, Me.). All experimental animals were used in accordance to Institutional Animal Care and Use Committee of AtheroGenics, Inc. Mice were sensitized by administering an intraperitoneal injection of 20 μg of ovalbumin (Calbiochem, La Jolla, Calif.) adsorbed in 2 mg of alum (Imject Alum; Pierce, Rockford, Ill.) on day 0 and 14. A group of mice received saline and served as negative control animals. The mice were challenged by aerosol exposure to ovalbumin (1% [wt/vol]) for 25 minutes on 3 consecutive days (days 28, 29, and 30) in a plexiglass exposure chamber coupled to an Aeroneb nebulizer (Buxco Electronics, Wilmington, N.C.). Experimental compounds were dissolved in Glycofurol/PEG 300/Tween (35%/55%/10%) (Sigma-Aldrich; Milwaukee, Wis.). Animals were dosed orally with either test compound or vehicle (6 ml/kg dosing volume) on days 26-32 of study. Compound or vehicle was administered 2 hour before the aerosol challenge on days 28, 29, and 30 and 1 hour before airway reactivity measurement on day 32.
Methacholine-induced airway reactivity was assessed on day 32. Methacholine was administered in increasing concentrations ([…], 1.5, 3, 6, 12, 25, and 50 mg/ml) to unrestrained mice. Increases in airway resistance to Methacholine were determined as enhanced pause, (Penh) values, during and after the exposure (6-minute total analysis time). Mice were then humanely euthanized with an overdose of ketamine/xylazine and plasma samples collected for determination of drug levels. The data is presented as the % inhibition of the PenH vs McH dose AUC compared with the vehicle control.
Data analysis was conducting using the software package, JMP (SAS Institute Inc; Cary, N.C.). The Dunnett's multiple comparison test was used to compare treatment group means to the vehicle control group. P values of less than 0.05 were considered statistically significant. The data (Table 1) is presented as the % inhibition of the PenH vs McH dose AUC compared with the vehicle control.

SMILES | Reduction of Penh AUC at 50 mg/kg p.o. ([1]; dosed days 26-32, measured day 32, ovalbumin-sensitized male Balb/CJ mice, 50 mg/kg) | inhibition in vivo at 50 mg/kg [1] | melting point
Cn1c(C(=O)O)ccc1S(=O)(=O)N1CCC(Sc2cc(C(C)(C)C)c(O)c(C(C)(C)C)c2)CC1 [Example 18, 5-[4-(3,5-Di-tert-butyl-4-hydroxy-phenylsulfanyl)-piperidine-1-sulfonyl]-1-methyl-1H-pyrrole-2-carboxylic acid tris(hydroxymethyl)aminomethane (THAM) Salt] | 1 (>40% and statistically significant) | – | –
Cn1c(C(=O)O)ccc1S(=O)(=O)N1CCC(Sc2cc(C(C)(C)C)c(OCCCO)c(C(C)(C)C)c2)CC1 [Example 6, 5-{4-[3,5-Di-tert-butyl-4-(3-hydroxy-propoxy)-phenylsulfanyl]-piperidine-1-sulfonyl}-1-methyl-1H-pyrrole-2-carboxylic acid] | – | < 20% | –
Cc1[nH]c(C(=O)O)c(C)c1S(=O)(=O)N1CCC(Sc2cc(C(C)(C)C)c(O)c(C(C)(C)C)c2)CC1 [Example 3, 4-[4-(3,5-Di-tert-butyl-4-hydroxy-phenylsulfanyl)-piperidine-1-sulfonyl]-3,5-dimethyl-1H-pyrrole-2-carboxylic acid] | – | 20 to 40% | –
Cn1c(C(=O)O)ccc1S(=O)(=O)N1CCC([S+]([O-])c2cc(C(C)(C)C)c(O)c(C(C)(C)C)c2)CC1 (stereo not shown) [Example 7, 5-[4-(3,5-Di-tert-butyl-4-hydroxy-benzenesulfinyl)-piperidine-1-sulfonyl]-1-methyl-1H-pyrrole-2-carboxylic acid] | – | 20 to 40% | –
CC(C)(C)c1cc(SC2CCN(S(=O)(=O)c3ncc(CO)[nH]3)CC2)cc(C(C)(C)C)c1O [Example 9, 2,6-Di-tert-butyl-4-[1-(5-hydroxymethyl-1H-imidazole-2-sulfonyl)-piperidin-4-ylsulfanyl]-phenol] | – | 20 to 40% | 122 to 123 °C
Cn1c(CO)ccc1S(=O)(=O)N1CC[C@H](Sc2cc(C(C)(C)C)c(O)c(C(C)(C)C)c2)C1 [Example 15, (S)-2,6-Di-tert-butyl-4-[1-(5-hydroxymethyl-1-methyl-1H-pyrrole-2-sulfonyl)-pyrrolidin-3-ylsulfanyl]-phenol] | – | < 20% | 68 to 70 °C
Cn1c(C(=O)O)ccc1S(=O)(=O)N1CCC(Sc2cc(C(C)(C)C)c(O)c(C(C)(C)C)c2)CC1 [Example 4, 5-[4-(3,5-Di-tert-butyl-4-hydroxy-phenylsulfanyl)-piperidine-1-sulfonyl]-1-methyl-1H-pyrrole-2-carboxylic acid] | – | > 40% | –
CC(C)(C)c1cc(SC2CCN(S(=O)(=O)c3ncc(C(=O)O)[nH]3)CC2)cc(C(C)(C)C)c1O [Example 8, 2-[4-(3,5-Di-tert-butyl-4-hydroxy-phenylsulfanyl)-piperidine-1-sulfonyl]-3H-imidazole-4-carboxylic acid] | – | 20 to 40% | –
Cn1c(C(=O)O)ccc1S(=O)(=O)N1CCC(Sc2cc(C(C)(C)C)c(O)c(C(C)(C)C)c2)CC1 [Example 16, 5-[4-(3,5-Di-tert-butyl-4-hydroxy-phenylsulfanyl)-piperidine-1-sulfonyl]-1-methyl-1H-pyrrole-2-carboxylic acid L-arginine salt] | – | < 20% | –
Cn1c(C(=O)O)ccc1S(=O)(=O)N1CC[C@H](Sc2cc(C(C)(C)C)c(O)c(C(C)(C)C)c2)C1 [Example 14, (S)-5-[3-(3,5-Di-tert-butyl-4-hydroxy-phenylsulfanyl)-pyrrolidine-1-sulfonyl]-1-methyl-1H-pyrrole-2-carboxylic acid] | – | < 20% | –
Cn1c(C(=O)O)ccc1S(=O)(=O)N1CCC(CCO)(Sc2cc(C(C)(C)C)c(O)c(C(C)(C)C)c2)CC1 [Example 1, 5-[4-(3,5-Di-tert-butyl-4-hydroxy-phenylsulfanyl)-4-(2-hydroxy-ethyl)-piperidine-1-sulfonyl]-1-methyl-1H-pyrrole-2-carboxylic acid] | – | < 20% | –
Cn1c(C(=O)O)ccc1S(=O)(=O)N1CC[C@@H](Sc2cc(C(C)(C)C)c(O)c(C(C)(C)C)c2)C1 [Example 13, (R)-5-[3-(3,5-Di-tert-butyl-4-hydroxy-phenylsulfanyl)-pyrrolidine-1-sulfonyl]-1-methyl-1H-pyrrole-2-carboxylic acid] | – | < 20% | –
Cn1c(CO)ccc1S(=O)(=O)N1CCC(CCO)(Sc2cc(C(C)(C)C)c(O)c(C(C)(C)C)c2)CC1 [Example 2, 2,6-Di-tert-butyl-4-[4-(2-hydroxy-ethyl)-1-(5-hydroxymethyl-1-methyl-1H-pyrrole-2-sulfonyl)-piperidin-4-ylsulfanyl]-phenol] | – | > 40% | 126 to 127 °C
CC(C)(C)c1cc(SC2CCN(S(=O)(=O)c3ncc(C(C)(C)O)[nH]3)CC2)cc(C(C)(C)C)c1O [Example 12, 2,6-Di-tert-butyl-4-{1-[5-(1-hydroxy-1-methyl-ethyl)-1H-imidazole-2-sulfonyl]-piperidin-4-ylsulfanyl}-phenol] | – | < 20% | –
Cn1c(CO)ccc1S(=O)(=O)N1CCC(Sc2cc(C(C)(C)C)c(O)c(C(C)(C)C)c2)CC1 [Example 5, 2,6-Di-tert-butyl-4-[1-(5-hydroxymethyl-1-methyl-1H-pyrrole-2-sulfonyl)-piperidin-4-ylsulfanyl]-phenol] | – | > 40% | 64 to 65 °C
